Values quoted from earlier work, collected in US12165861B2, “Mass spectrometry method for measuring vitamin B6 in body fluid” (Quest Diagnostics Investments Incorporated, priority 2007, dated 2024).

- time to plasma peak (100 mg of vitamin B6, under normal conditions): 2 h
- half-life (100 mg of vitamin B6, under normal conditions, plasma): 8 h
- change in plasma PLP (doses of over 25 mg): little change
Substance: vitamin B6
